Assay results reported in US8362022B2, “Selective subtype alpha 2 adrenergic agents and methods for use thereof” (Allergan, Inc., priority 2008, dated 2013).

What was measured:
alpha 2C receptor = biological target: T1, alpha 2C receptor (Homo sapiens, UniProt P18825); assay: RSAT assay (Receptor Selection and Amplification Technology), Alpha 2C; format: cell-based; conditions: RSAT
T1 construct: expressed in transfected cells; host or cells: NIH-3T3
T1 sequence (P18825 1-462): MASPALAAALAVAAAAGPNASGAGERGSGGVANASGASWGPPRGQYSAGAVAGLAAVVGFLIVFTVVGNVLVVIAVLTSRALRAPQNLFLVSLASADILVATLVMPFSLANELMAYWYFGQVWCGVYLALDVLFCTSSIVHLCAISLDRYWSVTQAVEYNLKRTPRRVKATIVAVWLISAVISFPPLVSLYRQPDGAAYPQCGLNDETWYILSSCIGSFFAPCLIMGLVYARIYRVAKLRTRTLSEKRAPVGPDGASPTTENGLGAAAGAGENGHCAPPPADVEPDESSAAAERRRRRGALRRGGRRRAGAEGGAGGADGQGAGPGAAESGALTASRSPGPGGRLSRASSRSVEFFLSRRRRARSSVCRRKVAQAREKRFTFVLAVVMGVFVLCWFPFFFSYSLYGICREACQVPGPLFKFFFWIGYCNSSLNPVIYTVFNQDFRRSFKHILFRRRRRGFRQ
Procedure: (§1) The RSAT assay measures a receptor-mediated loss of contact inhibition that results in selective proliferation of receptor-containing cells in a mixed population of confluent cells. The increase in cell number is assessed with an appropriate transfected marker gene such as β-galactosidase, the activity of which can be easily measured in a 96-well format. Receptors that activate the G protein, Gq, elicit this response. Alpha 2 receptors, which normally couple to Gi, activate the RSAT response when coexpressed with a hybrid Gq protein that has a Gi receptor recognition domain, called Gq/i5.
(§2) NIH-3T3 cells are plated at a density of 2×10^6 cells in 15 cm dishes and maintained in Dulbecco's modified Eagle's medium supplemented with 10% calf serum. One day later, cells are cotransfected by calcium phosphate precipitation with mammalian expression plasmids encoding p-SV-β-galactosidase (5-10 μg), receptor (1-2 μg) and G protein (1-2 μg). 40 μg salmon sperm DNA may also be included in the transfection mixture. […] Cells are thawed and 100 μl added to 100 μL aliquots of various concentrations of drugs in triplicate in 96-well dishes. Incubations continue 72-96 hr at 37° C. After washing with phosphate-buffered saline, β-galactosidase enzyme activity is determined by adding 200 μL of the chromogenic substrate (consisting of 3.5 mM o-nitrophenyl-β-D-galactopyranoside and 0.5% nonidet P-40 in phosphate buffered saline), incubating overnight at 30° C. and measuring optical density at 420 nm. The absorbance is a measure of enzyme activity, which depends on cell number and reflects a receptor-mediated cell proliferation. The efficacy or intrinsic activity is calculated as a ratio of the maximal effect of the drug to the maximal effect of a standard full agonist for each receptor subtype. Brimonidine, the chemical structure of which is shown below, is used as the standard agonist for the alpha 2B and alpha 2C receptors. […] NA stands for “not active” at concentrations less than 3-10 micromolar.

Alpha 1A = biological target: T2, Alpha 1A (Homo sapiens, UniProt P35348); assay: RSAT assay (Receptor Selection and Amplification Technology), Alpha 1A; format: cell-based; conditions: value in parentheses, ratio of maximal effect of drug to maximal effect of standard full agonist
T2 sequence (P35348 1-466): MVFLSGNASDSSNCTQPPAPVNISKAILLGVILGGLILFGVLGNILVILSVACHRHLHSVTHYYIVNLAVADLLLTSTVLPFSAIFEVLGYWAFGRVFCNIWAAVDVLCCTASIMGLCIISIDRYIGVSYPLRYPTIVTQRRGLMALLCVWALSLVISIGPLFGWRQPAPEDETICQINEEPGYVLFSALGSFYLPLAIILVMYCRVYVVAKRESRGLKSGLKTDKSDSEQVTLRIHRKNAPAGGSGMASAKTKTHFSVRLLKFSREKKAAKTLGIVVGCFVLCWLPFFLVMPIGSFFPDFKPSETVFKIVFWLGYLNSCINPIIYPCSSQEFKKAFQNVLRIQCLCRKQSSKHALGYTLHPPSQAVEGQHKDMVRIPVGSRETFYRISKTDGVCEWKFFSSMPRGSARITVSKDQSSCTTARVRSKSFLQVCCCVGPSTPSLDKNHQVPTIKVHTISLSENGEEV
Procedure: as §1, §2

Cc1cccc(C(Cc2cccnc2)/N=C2/NCCO2)c1C (stereo not drawn) [Compound 21, 1-(2,3-Dimethylphenyl)-N-(oxazolidin-2-ylidene)-2-(pyridin-3-yl)ethanamine]
EC50 (alpha 2C receptor; transfected NIH-3T3 cells with Gq/i5, NA = not active at concentrations less than 10 micromolar, read-out: potency nM (EC50) Alpha 2C): 18 nM | Intrinsic Activity efficacy Alpha 2C (alpha 2C receptor; value in parentheses, ratio of maximal effect to that of brimonidine): 0.4 | Intrinsic Activity efficacy Alpha 1A (Alpha 1A): 0.6
